Data taken from PubChem BioAssay AID248 (DTP/NCI, 2004).
Where “and” joins values, the source holds several entries; their conditions need not be identical. Equal values may be shown once. Inconclusive results and toxic doses are left out. No stated cut-off is given here; in the data, active means T/C of 150% or more; inactive means T/C below 125%.

System: L1210 leukemia ip in BDF1 mice, survival T/C
Experiment: NCI In Vivo Anticancer Drug Screen. Data for tumor model L1210 Leukemia (intraperitoneal) in B6D2F1 (BDF1) mice
Conditions: endpoint: mean survival time, higher = longer survival
Procedure, shortened: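 Transplanted-tumor mice were given test agent; controls received vehicle only. Survival readings from the two groups were divided (treated over control).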

[1] = dose: 100.0 mg/kg/injection, schedule: Q04DX002 (ip), vehicle: Klucel (hydroxypropylcellulose) (HPC)
[2] = dose: 200.0 mg/kg/injection, schedule: Q04DX002 (ip), vehicle: Klucel (hydroxypropylcellulose) (HPC)
[3] = dose: 100.0 mg/kg/injection, schedule: Q01DX009 (ip), vehicle: saline with Tween-80
[4] = dose: 200.0 mg/kg/injection, schedule: Q01DX009 (ip), vehicle: saline with Tween-80
[5] = dose: 400.0 mg/kg/injection, schedule: Q01DX009 (ip), vehicle: saline with Tween-80
[6] = dose: 100.0 mg/kg/injection, schedule: Q04DX002 (ip), vehicle: saline with Tween-80
[7] = dose: 200.0 mg/kg/injection, schedule: Q04DX002 (ip), vehicle: saline with Tween-80
[8] = dose: 400.0 mg/kg/injection, schedule: Q04DX002 (ip), vehicle: saline with Tween-80
[9] = dose: 100.0 mg/kg/injection, schedule: Q01DX001 (ip), vehicle: saline
[10] = dose: 100.0 mg/kg/injection, schedule: Q01DX001 (ip), vehicle: saline with Tween-80
[11] = dose: 200.0 mg/kg/injection, schedule: Q01DX001 (ip), vehicle: saline with Tween-80
[12] = dose: 400.0 mg/kg/injection, schedule: Q01DX001 (ip), vehicle: saline with Tween-80
[13] = dose: 100.0 mg/kg/injection, schedule: Q01DX009 (ip), vehicle: Klucel (hydroxypropylcellulose) (HPC)
[14] = dose: 50.0 mg/kg/injection, schedule: Q01DX009 (ip), vehicle: saline with Tween-80

Measured: T/C

O=Cc1c(Cl)n(C(=O)c2ccccc2)c2ccccc12
inactive: dose: 50.0 mg/kg/injection, schedule: Q04DX002 (ip), vehicle: Klucel (hydroxypropylcellulose) (HPC) 90 % of control | [1] 87 % of control | [2] 97 % of control

CSc1n[nH]c(N)n1
inactive: [3] 92 % of control | [4] 92 % of control | [5] 92 % of control

O=C1/C(=C\c2ccc(OCc3ccccc3)c(OCc3ccccc3)c2)N2CCC1CC2
inactive: [1] 102 % of control | [2] 115 % of control | dose: 400.0 mg/kg/injection, schedule: Q04DX002 (ip), vehicle: Klucel (hydroxypropylcellulose) (HPC) 105 % of control

CCC(C)C(C=NCC(CCN(CC)CC)(c1cccc2ccccc12)C(C)CC)(CCN(CC)CC)c1cccc2ccccc12 (stereo not given)
inactive: [6] 94 % of control | [7] 97 % of control | [8] 87 % of control

O=C1c2ccccc2C(=O)c2c3c(cc(NCCNCCO)c21)N(CCO)CCN3
inactive: dose: 25.0 mg/kg/injection, schedule: Q01DX009 (ip), vehicle: DMSO 119 % of control | dose: 50.0 mg/kg/injection, schedule: Q01DX009 (ip), vehicle: DMSO 121 % of control | dose: 200.0 mg/kg/injection, schedule: Q01DX009 (ip), vehicle: DMSO 122 % of control

CC(C)(CO)NC(=O)CC1CCCCC1
inactive: [3] 96 % of control | [4] 97 % of control | [5] 97 % of control

c1ccc2c[n+](CCCCCCCCCC[n+]3ccc4ccccc4c3)ccc2c1
inactive: dose: 1.0 mg/kg/injection, schedule: Q01DX009 (ip), vehicle: saline 106 % of control | dose: 2.0 mg/kg/injection, schedule: Q01DX009 (ip), vehicle: saline 97 % of control | dose: 4.0 mg/kg/injection, schedule: Q01DX009 (ip), vehicle: saline 92 % of control | dose: 8.0 mg/kg/injection, schedule: Q04DX003 (ip), vehicle: saline 97 % of control | dose: 16.0 mg/kg/injection, schedule: Q04DX003 (ip), vehicle: saline 92 % of control | dose: 32.0 mg/kg/injection, schedule: Q04DX003 (ip), vehicle: saline 89 % of control

O=C(O)CN(CCCCN(CC(=O)O)CC(=O)O)CC(=O)O
inactive: dose: 100.0 mg/kg/injection, schedule: Q01DX001 (ip), vehicle: other 111 % of control | dose: 200.0 mg/kg/injection, schedule: Q01DX001 (ip), vehicle: other 117 % of control | dose: 400.0 mg/kg/injection, schedule: Q01DX001 (ip), vehicle: other 96 % of control

CCOC(=O)C1=NN(c2ccccc2)C(=O)C1N=Nc1ccc(S(=O)(=O)Nc2nccc(C)n2)cc1 (stereo not given)
inactive: [9] 95 % of control | dose: 200.0 mg/kg/injection, schedule: Q01DX001 (ip), vehicle: saline 101 % of control | dose: 400.0 mg/kg/injection, schedule: Q01DX001 (ip), vehicle: saline 102 % of control

CCOC(=O)c1[nH]c2ccsc2c1C[N+]1(C)CCCCC1
inactive: dose: 12.5 mg/kg/injection, schedule: Q01DX001 (ip), vehicle: saline with Tween-80 105 % of control | dose: 25.0 mg/kg/injection, schedule: Q01DX001 (ip), vehicle: saline with Tween-80 103 % of control

CC1CCCCN1Cc1ccccc1COC(=O)c1ccc(Cl)cc1 (stereo not given)
inactive: dose: 100.0 mg/kg/injection, schedule: Q01DX001 (ip), vehicle: Klucel (hydroxypropylcellulose) (HPC) 98 % of control | dose: 200.0 mg/kg/injection, schedule: Q01DX001 (ip), vehicle: Klucel (hydroxypropylcellulose) (HPC) 107 % of control

O=S(=O)(NNS(=O)(=O)c1ccccc1)c1ccccc1
inactive: [10] 101 % of control | [11] 94 % of control | [12] 88 % of control

C/C(=C\C(C)C)C1(C)C(=O)NC(=O)NC1=O
inactive: dose: 75.0 mg/kg/injection, schedule: Q01DX001 (ip), vehicle: other 96 % of control | dose: 150.0 mg/kg/injection, schedule: Q01DX001 (ip), vehicle: other 109 % of control | dose: 300.0 mg/kg/injection, schedule: Q01DX001 (ip), vehicle: other 105 % of control

CC(=O)Oc1cccc2c1C(=O)OC2=O
inactive: [10] 89 % of control | [11] 108 % of control

CS(=O)(=O)NN
inactive: dose: 25.0 mg/kg/injection, schedule: Q01DX009 (ip), vehicle: saline 89 % of control | dose: 50.0 mg/kg/injection, schedule: Q01DX001 (ip), vehicle: saline 100 % of control | dose: 50.0 mg/kg/injection, schedule: Q01DX009 (ip), vehicle: saline 94 % of control | [9] 102 % of control and 103 % of control

COc1cc2c(cc1NC1=NCCO1)OCO2
inactive: dose: 75.0 mg/kg/injection, schedule: Q04DX003 (ip), vehicle: Klucel (hydroxypropylcellulose) (HPC) 101 % of control | dose: 150.0 mg/kg/injection, schedule: Q04DX003 (ip), vehicle: Klucel (hydroxypropylcellulose) (HPC) 93 % of control | dose: 300.0 mg/kg/injection, schedule: Q04DX003 (ip), vehicle: Klucel (hydroxypropylcellulose) (HPC) 103 % of control

ClCc1nc(-c2ccco2)no1
inactive: [13] 95 % of control

O=C1Nc2ccccc2/C1=C/c1cccnc1
inactive: dose: 50.0 mg/kg/injection, schedule: Q01DX Z (ip), vehicle: carboxymethylcellulose (CMC) 97 % of control | dose: 100.0 mg/kg/injection, schedule: Q01DX Z (ip), vehicle: carboxymethylcellulose (CMC) 111 % of control | dose: 200.0 mg/kg/injection, schedule: Q01DX Z (ip), vehicle: carboxymethylcellulose (CMC) 94 % of control | dose: 400.0 mg/kg/injection, schedule: Q01DX Z (ip), vehicle: carboxymethylcellulose (CMC) 95 % of control

CC(C)(C)NC(=O)NC1CCCCC1
inactive: [10] 95 % of control | [3] 94 % of control and 110 % of control | [6] 97 % of control and 100 % of control | dose: 100.0 mg/kg/injection, schedule: Q04DX003 (ip), vehicle: saline 101 % of control | [11] 98 % of control | [4] 100 % of control and 87 % of control | [7] 97 % of control | dose: 200.0 mg/kg/injection, schedule: Q04DX003 (ip), vehicle: saline 111 % of control | [12] 95 % of control | [5] 100 % of control and 115 % of control | [8] 94 % of control and 90 % of control | dose: 400.0 mg/kg/injection, schedule: Q04DX003 (ip), vehicle: saline 101 % of control

CCOC(=O)C(=O)CC1CCCCC1
inactive: [14] 92 % of control | [3] 100 % of control | [4] 100 % of control

O=C(O)C(Cc1cc(I)c(O)c(I)c1)c1ccccc1 (stereo not given)
inactive: dose: 50.0 mg/kg/injection, schedule: Q01DX009 (ip), vehicle: Klucel (hydroxypropylcellulose) (HPC) 98 % of control | [13] 97 % of control | dose: 100.0 mg/kg/injection, schedule: Q04DX003 (ip), vehicle: Klucel (hydroxypropylcellulose) (HPC) 100 % of control | dose: 200.0 mg/kg/injection, schedule: Q01DX009 (ip), vehicle: Klucel (hydroxypropylcellulose) (HPC) 101 % of control | dose: 200.0 mg/kg/injection, schedule: Q04DX003 (ip), vehicle: Klucel (hydroxypropylcellulose) (HPC) 100 % of control

Cc1cccc(NC(=S)N2CCCCC2)c1
inactive: [6] 100 % of control | [7] 100 % of control | [8] 100 % of control

Clc1ccc(/C=N\N=C\c2ccc(Cl)c(Cl)c2)cc1Cl
inactive: dose: 25.0 mg/kg/injection, schedule: Q01DX009 (ip), vehicle: saline with Tween-80 90 % of control | [14] 90 % of control | [3] 95 % of control and 90 % of control | dose: 200.0 mg/kg/injection, schedule: Q04DX003 (ip), vehicle: saline with Tween-80 90 % of control | [5] 97 % of control | dose: 400.0 mg/kg/injection, schedule: Q04DX003 (ip), vehicle: saline with Tween-80 91 % of control

Nc1nc(N)c(CCCCc2ccccc2)c(C=O)n1
inactive: [13] 98 % of control

CC1=CC(=O)c2ccccc2C1=O
inactive: dose: 10.0 mg/kg/injection, schedule: Q01DX015 (ip), vehicle: carboxymethylcellulose (CMC) 90 % of control | dose: 15.0 mg/kg/injection, schedule: Q01DX015 (ip), vehicle: carboxymethylcellulose (CMC) 90 % of control | dose: 20.0 mg/kg/injection, schedule: Q01DX015 (ip), vehicle: carboxymethylcellulose (CMC) 90 % of control | dose: 43.0 mg/kg/injection, schedule: Q01DX001 (ip), vehicle: carboxymethylcellulose (CMC) 97 % of control | dose: 64.0 mg/kg/injection, schedule: Q01DX001 (ip), vehicle: carboxymethylcellulose (CMC) 102 % of control | dose: 85.0 mg/kg/injection, schedule: Q01DX001 (ip), vehicle: carboxymethylcellulose (CMC) 108 % of control
